Measured values from patent publication US11633397B2, “Use of modulators of CCR5 in the treatment of cancer and cancer metastasis” (priority 2012, dated 2023).
Where two headings read alike, the source gives them in different places.

Legend:
[1] = biological target: CCR5 (Homo sapiens, UniProt P51681); assay: CCL5-induced calcium signaling (Fluo-4-AM intracellular calcium assay) in MDA-MB-231 cells; type: cell-based; details: antagonist 100 nmol/L for 30 minutes before addition of CCL5
Protocol: Micrographs illustrate the axis (x-x′) of the pseudoline scan plot. Those axes were used to construct the adjacent intensity versus time plots. […] The data in FIGS. 3B and 3D are mean±SEM of 3 to 4 independent experiments. Statistical analysis was conducted using the Student t test.
Calcium responses induced either by CCL5 or FBS in human cancer cell lines were monitored under fluorescence confocal microscope as previously reported (28). Briefly, breast cancer cells were seeded in 4-well labtek chambers (Nunc) at 10^4 cells/cm^2 and incubated for 1 day. After 12-hour starvation, cells were labeled by incubating them with […] Fluo-4-AM (Molecular Probes) in HBSS for 30 minutes, washed twice, and incubated for additional 30 minutes before imaging under the microscope. Time-lapse images were collected using a Zeiss LSM 510 Meta inverted confocal microscope with the incubator at 37° C. Relative intracellular Ca^2+ concentration was determined by the changes in fluorescent intensity (FI) of Fluo-4-AM upon the addition of CCL5 (60 ng/mL) or FBS (5%) and was calculated as (FIt−FI0)/FI0.
The importance of CCR5 in HIV infection led to the development of different drugs that target this receptor.

[2] = mice; 16 mg/kg; cited from earlier work
[3] = test system: SUM-159 breast cancer cells; assay: FBS-induced 3D invasion into collagen gels, SUM-159; type: cell-based, human; details: SUM-159 cells; 100 nmol/L; 5% FBS as chemoattractant
Protocol: (§1) In FIG. 4A, there is shown 3D reconstruction of FBS-induced invasion into collagen gels by Hs578T breast cancer cells in presence of CCR5 antagonists (100 nmol/L). In FIG. 3C there is shown 3D reconstruction of FBS-induced invasion into collagen gels by SUM-159 breast cancer cells in presence of CCR5 antagonists (100 nmol/L).
(§2) The 3-dimensional invasion assay was conducted as previously reported (12). Briefly, 100 μL of 1.67 mg/mL Rat Tail collagen type I (BD Biosciences) was pipetted into the top chamber of a 24-well 8-μm pore Transwell (Corning). The Transwell was incubated at 37° C. overnight to allow the collagen to solidify. A total of 30,000 cells were then seeded on the bottom of the Transwell membrane and allowed to attach. Serum-free growth medium was placed into the bottom chamber, whereas 15 ng/mL CCL5 or 5% FBS was used as a chemoattractant in the medium of the upper chamber. The cells were then chemoattracted across the filter through the collagen above for 3 days. Cells were fixed in 4% formaldehyde, permeabilized with 0.2% Triton-X in PBS, and then stained with 40 μg/mL propidium iodide (PI) for 2 hours. Fluorescence was analyzed by confocal z-sections (one section every 20 μm) at ×10 magnification from the bottom of the filter using a Zeiss LSM 510 Meta inverted confocal microscope at the Kimmel Cancer Center Bioimaging Facility. […]

[4] = test system: MDA-MB-231 cells; assay: MTT cell viability assay; type: cell-based, human; details: increasing concentrations, 48 hours
Source text: In FIG. 6A, there is shown the effect of CCR5 antagonist on breast cancer cell viability. […] Graph is from a representative experiment carried out by sextuplicate. No statistical differences were found (ANOVA) in 3 independent experiments. In FIG. 6B, there is shown CCR5 expression in MDA-MB-231 cells stably transfected with pcDNA3.1+/Zeo+ (MDA.Vector) or human CCR5 cloned into pCDNA3+Zeo+ (MDA.CCR5). […] Representative experiment from 2 carried out by sextuplicate. […] Thus, the reduction in tumor mass in the lungs is due to the inhibition of “homing” or spread of tumors to the lung. […] Cells expressing eGFP were counted in 3 random fields of 2 different histologic sections (separated 700 μm from each other) per mouse (n=5 mice per group). Statistical analysis was conducted using Student t test. Bar in micrographs, 100 μm.
The MTT assay is a colorimetric assay for measuring the activity of cellular enzymes that reduce the tetrazolium dye, 3-(4,5-Dimethylthiazol-2-yl)-2,5-diphenyltetrazolium bromide, a yellow tetrazole (MTT), to its insoluble formazan, giving a purple color. […]
The effects of CCR5 antagonists on cell viability and proliferation rate were estimated using the soluble tetrazolium salt MTT assay (29). […] Then, the reduced (insoluble and colored) formazan was dissolved in DMSO and measured spectrophotometrically at 570 nm. […]

[5] = test system: Hs578T breast cancer cells; assay: FBS-induced 3D invasion into collagen gels, Hs578T; type: cell-based, human; details: 100 nmol/L, 5% FBS as chemoattractant
Protocol: as §1, §2

[6] = humans; oral dose of 300 mg; cited from earlier work
[7] = test system: MDA-MB-231 cells (MDA.pFULG) established pulmonary metastasis; assay: Growth of established pulmonary metastasis (treatment started 10 days after cell injection); type: in vivo, NOD/SCID mice; details: 8 mg/kg every 12 hours; treatment initiated 10 days after injection of cells
Source text: (§3) In FIG. 6A, there is shown the effect of CCR5 antagonist on breast cancer cell viability. […] Graph is from a representative experiment carried out by sextuplicate. No statistical differences were found (ANOVA) in 3 independent experiments. In FIG. 6B, there is shown CCR5 expression in MDA-MB-231 cells stably transfected with pcDNA3.1+/Zeo+ (MDA.Vector) or human CCR5 cloned into pCDNA3+Zeo+ (MDA.CCR5). […] Representative experiment from 2 carried out by sextuplicate. […] Thus, the reduction in tumor mass in the lungs is due to the inhibition of “homing” or spread of tumors to the lung. […] Cells expressing eGFP were counted in 3 random fields of 2 different histologic sections (separated 700 μm from each other) per mouse (n=5 mice per group). […]
(§4) MB-MDA-231 cells expressing Luc2-eGFP (called MDA.pFLUG for the rest of the article) were detached with a nonenzymatic cell dissociation buffer (4 mmol/L EDTA in Ca^2+ and Mg^2+-free PBS), resuspended in Dulbecco's PBS without Ca^2+ and Mg^2+ and immediately injected into the tail vein of 8-week-old, female nonobese diabetic/severe combined immunodeficient (NOD/SCID) mice (NCI, Bethesda Md.). […] Data are expressed as total photon flux and were analyzed using Living Image 3.0 software (Caliper Life Sciences). […] Cryosections (10 μm) were counterstained with 4′,6-diamidino-2-phenylindole analyzed by confocal microscopy. […]

[8] = test system: MDA-MB-231 cells (MDA.pFULG) pulmonary metastases; assay: Experimental lung metastasis assay (tail vein injection of MDA.pFULG cells, BLI, histology); type: in vivo, NOD/SCID mice
Protocol: In FIG. 5A, MDA-MB-231 cells transduced with Luc2-eGFP fusion protein were injected into the tail vein of NOD/SCID mice and the in vivo bioluminescent signal was quantified weekly. […] Tumor area was quantified with the Nikon Elements BR 3.0 software analyzing at low magnification (×40) 2 random fields of 2 different histologic sections (separated 600 μm from each other) per mouse. Statistical analysis was conducted using the Student t test with Welch correction for heterogeneous variances (n=33 and 12 for control and treated groups, respectively).
MB-MDA-231 cells expressing Luc2-eGFP (called MDA.pFLUG for the rest of the article) were detached with a nonenzymatic cell dissociation buffer (4 mmol/L EDTA in Ca^2+ and Mg^2+-free PBS), resuspended in Dulbecco's PBS without Ca^2+ and Mg^2+ and immediately injected into the tail vein of 8-week-old, female nonobese diabetic/severe combined immunodeficient (NOD/SCID) mice (NCI, Bethesda Md.). Each mouse received 10^6 cells. […] Treatment was started immediately after injection or 10 days later for the experiments analyzing the proliferation of established metastasis. For in vivo bioluminescence imaging (BLI), mice were given an intraperitoneal (i.p.) injection with 200 μL of d-luciferin (30 mg/mL). Mice were anesthetized with isoflurane (2% in 1 L/min oxygen), and bioluminescence images were acquired 10 to 15 minutes after d-luciferin injection using the IVIS XR system (Caliper Life Sciences). Acquisition times ranged from 10 seconds (for later time points) to 5 minutes (for early time points). Data are expressed as total photon flux and were analyzed using Living Image 3.0 software (Caliper Life Sciences). For ex vivo BLI, d-luciferin was diluted in PBS to a final concentration of 300 μg/mL and used to soak freshly isolated lungs for 2 to 3 minutes before imaging. Some lungs were stained with India ink, as previously reported (33), or processed and stained with hematoxylin and eosin to corroborate the presence of pulmonary tumors. For homing assays, mice were euthanized 24 hours after the intravenous injection of MDA.pFULG cells. Lungs were perfused with PBS, fixed with freshly prepared formaldehyde (4% in PBS), and frozen in optimum cutting temperature (Sakura Finetek). Cryosections (10 μm) were counterstained with 4′,6-diamidino-2-phenylindole analyzed by confocal microscopy. Animal experiments were approved by the Thomas Jefferson University's Institutional Animal Care and Use Committee.
MDA-MB-231 cells transduced within the Luc2-eGFP lentiviral vector (MDA.pFULG cells) were used in an experimental metastasis model. The Luc2 gene is a codon-optimized version of Luc and cells expressing this reporter were 10 to 100 times brighter than the unmodified Luc gene (30). […]

[9] = test system: MDA.pFULG cells; assay: Homing assay: lung colonization 24 hours after injection of MDA.pFULG cells; type: in vivo, mice; details: 10 administrations (twice a day for 5 days) before i.v. injection of cells; lungs 24 hours after injection
Source text: as §3, §4

[10] = 8 mg/kg twice daily, oral gavage

Chain of CCR5 (P51681 whole entry): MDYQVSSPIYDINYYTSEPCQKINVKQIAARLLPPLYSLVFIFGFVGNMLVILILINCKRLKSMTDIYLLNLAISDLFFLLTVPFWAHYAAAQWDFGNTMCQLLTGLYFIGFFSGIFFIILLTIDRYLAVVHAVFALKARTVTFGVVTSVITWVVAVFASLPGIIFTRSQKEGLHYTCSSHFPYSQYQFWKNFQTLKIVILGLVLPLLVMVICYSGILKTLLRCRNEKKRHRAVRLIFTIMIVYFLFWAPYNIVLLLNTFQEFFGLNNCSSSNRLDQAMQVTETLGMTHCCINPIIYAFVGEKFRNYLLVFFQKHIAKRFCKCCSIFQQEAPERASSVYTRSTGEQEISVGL

| inhibition of CCL5-induced calcium responses [1] | Structure (SMILES) | Cmax [2] | FBS-induced breast cancer cell invasion [3] | cell viability (MTT reduction) [4] | FBS-induced breast cancer cell invasion [5] | Cmax [6] | tumor growth of established pulmonary metastasis (in vivo BLI) [7] | fraction of treated mice with detectable metastatic tumors [8, 10] | reduction of mean size of metastatic tumors (lung histology) [8, 10] | number and size of pulmonary metastases compared with vehicle-treated mice ([8]; 8 mg/kg twice daily, oral gavage, weekly BLI for 5 weeks) | pulmonary tumor burden ([8]; 16 mg/kg/d divided into 2 doses) | reduction of the number of eGFP cells in the lungs [9] |
| --- | --- | --- | --- | --- | --- | --- | --- | --- | --- | --- | --- | --- |
| 65% | Cc1nnc(C(C)C)n1[C@@H]1C[C@H]2CC[C@@H](C1)N2CC[C@H](NC(=O)C1CCC(F)(F)CC1)c1ccccc1 [maraviroc, 4,4-difluoro-N-[(1S)-3-[(1R,5S)-3-(3-methyl-5-propan-2-yl-1,2,4-triazol-4-yl)-8-azabicyclo[3.2.1]octan-8-yl]-1-phenylpropyl]cyclohexane-1-carboxamide] | 1040 nM | inhibited FBS-induced breast cancer cell invasion | did not affect the MTT reduction | inhibited FBS-induced breast cancer cell invasion | 1200 nM | did not modify tumor growth | 50% | 65% | significant reduction | significantly reduced | 40% |
| 90% | COC[C@@H](c1ccc(C(F)(F)F)cc1)N1CCN(C2(C)CCN(C(=O)c3c(C)ncnc3C)CC2)C[C@@H]1C [vicriviroc, (4,6-dimethylpyrimidin-5-yl)-[4-[(3S)-4-[(1R)-2-methoxy-1-[4-(trifluoromethyl)phenyl]ethyl]-3-methylpiperazin-1-yl]-4-methylpiperidin-1-yl]methanone] | – | inhibited FBS-induced breast cancer cell invasion | did not affect the MTT reduction | inhibited FBS-induced breast cancer cell invasion | – | – | – | – | – | – | – |
